Results taken from ChEMBL document CHEMBL1143375 (Bioorg Med Chem Lett, 2009).

Experiments:
[1] = target: T1, Prostaglandin G/H synthase 2 (Homo sapiens, UniProt P35354); assay: Inhibition of human recombinant COX2 by enzyme immuno assay
T1 sequence (P35354 whole entry): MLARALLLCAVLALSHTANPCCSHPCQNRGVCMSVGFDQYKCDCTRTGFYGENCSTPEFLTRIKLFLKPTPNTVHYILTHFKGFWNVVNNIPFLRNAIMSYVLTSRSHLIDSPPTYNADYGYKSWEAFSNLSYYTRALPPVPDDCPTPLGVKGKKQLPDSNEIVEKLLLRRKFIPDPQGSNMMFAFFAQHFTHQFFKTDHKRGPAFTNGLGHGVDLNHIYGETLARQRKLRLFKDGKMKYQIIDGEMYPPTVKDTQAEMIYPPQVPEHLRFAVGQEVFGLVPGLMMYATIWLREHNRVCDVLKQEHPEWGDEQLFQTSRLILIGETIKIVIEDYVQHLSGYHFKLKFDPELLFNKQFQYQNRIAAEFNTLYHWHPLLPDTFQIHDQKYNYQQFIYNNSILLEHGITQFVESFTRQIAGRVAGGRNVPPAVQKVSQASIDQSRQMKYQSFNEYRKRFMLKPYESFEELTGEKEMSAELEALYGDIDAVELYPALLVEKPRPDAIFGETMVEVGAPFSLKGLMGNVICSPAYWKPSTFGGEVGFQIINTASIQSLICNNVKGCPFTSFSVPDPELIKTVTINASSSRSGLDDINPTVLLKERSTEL

[2] = Inhibition of potato LOX5; design: species or system Solanum tuberosum
[3] = target: T2, Prostaglandin G/H synthase 1 (Ovis aries, UniProt P05979)
T2 sequence (P05979 whole entry): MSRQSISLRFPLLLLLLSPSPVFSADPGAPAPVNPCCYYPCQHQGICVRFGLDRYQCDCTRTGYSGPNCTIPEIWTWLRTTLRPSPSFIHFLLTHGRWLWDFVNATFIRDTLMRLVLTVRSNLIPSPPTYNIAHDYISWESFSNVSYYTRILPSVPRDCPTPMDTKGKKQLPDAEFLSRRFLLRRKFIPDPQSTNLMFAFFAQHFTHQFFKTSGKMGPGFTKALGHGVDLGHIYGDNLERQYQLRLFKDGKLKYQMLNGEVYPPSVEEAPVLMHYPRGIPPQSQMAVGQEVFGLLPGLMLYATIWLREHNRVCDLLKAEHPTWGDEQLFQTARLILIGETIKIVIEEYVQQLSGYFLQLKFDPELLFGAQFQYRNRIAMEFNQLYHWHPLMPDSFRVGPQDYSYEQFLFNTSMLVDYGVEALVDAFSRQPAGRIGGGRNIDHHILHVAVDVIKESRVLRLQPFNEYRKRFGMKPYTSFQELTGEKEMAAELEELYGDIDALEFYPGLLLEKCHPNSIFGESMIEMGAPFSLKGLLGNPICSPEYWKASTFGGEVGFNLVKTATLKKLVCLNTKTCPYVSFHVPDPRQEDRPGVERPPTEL
Description: Inhibition of ovine COX1 by enzyme immuno assay

Rattus norvegicus = assay: Antiinflammatory activity in orally dosed rat assessed as inhibition of carrageenan-induced paw edema after 3 hrs; assay type: functional; conditions: po

| SMILES | IC50 [1] [µM] | IC50 [2] [µM] | IC50 [3] [µM] | ED50 (Rattus norvegicus) [mg/kg] |
| --- | --- | --- | --- | --- |
| CC(C)Cc1ccc(C(C)C(=O)O)cc1 (centres undefined) [IBUPROFEN] |  |  |  | 67.4 |
| CC(=O)Oc1ccccc1C(=O)O [ASPIRIN] |  |  |  | 129 |
| CS(=O)(=O)c1cccc(C#Cc2ccc(=O)n(C(F)F)c2)c1 | 3.7 | 3.2 | 32.4 | 66.1 |

Second part, led by results:

| IC50 [1] [µM] | IC50 [2] [µM] | IC50 [3] [µM] | SMILES | ED50 (Rattus norvegicus) [mg/kg] |
| --- | --- | --- | --- | --- |
| 5.1 | 3.3 | 14.1 | CS(=O)(=O)c1ccc(C#Cc2ccc(=O)n(C(F)F)c2)cc1 | 68.5 |
| 9.4 | 3.4 | > 100 | CS(=O)(=O)c1ccccc1C#Cc1ccc(=O)n(C(F)F)c1 | > 100 |
| 6 | 3.5 | 5.2 | NS(=O)(=O)c1ccc(C#Cc2ccc(=O)n(C(F)F)c2)cc1 | 86.5 |
|  | 4 |  | O=C(O)/C=C/c1ccc(O)c(O)c1 [CAFFEIC ACID] |  |
